Experimental data: patent US5364882A, “Oxysulfonyl urea ACAT inhibitors” (Warner-Lambert Company, priority 1992, dated 1994)

Legend:
[1] = APCC in vivo screen: blood cholesterol in rats on high fat, high cholesterol diet with 0.5% cholic acid; parameters: species or system male Sprague-Dawley rats; conditions: 30 mg/kg single dose at 4 PM, high cholesterol diet overnight, blood at 8 AM, vehicle CMC/Tween
Description: In one in vivo screen designated APCC, male Sprague-Dawley rats (200 to 225 g) were randomly divided into treatment groups and dosed at 4 PM with either vehicle (CMC/Tween) or suspensions of compounds in vehicle (30 mg/kg). The normal chow diet was then replaced with a high fat, high cholesterol diet with 0.5% cholic acid. The rats consumed this diet ad libitum during the night and were sacrificed at 8 AM to obtain blood samples for cholesterol analysis using standard procedures. Statistical differences between mean cholesterol values for the same vehicle were determined using analysis of variance followed by Fisher's least significant test.

[2] = target: T1, acyl-CoA: cholesterol acyltransferase (ACAT) (Oryctolagus cuniculus, UniProt G1SFD9); test: In vitro ACAT inhibition (IAI): formation of radiolabeled cholesterol oleate from radiolabeled oleic acid in rabbit intestinal microsomes; assay type: biochemical; conditions: concentration required to inhibit enzyme activity by 50%
T1 sequence (G1SFD9 1-524): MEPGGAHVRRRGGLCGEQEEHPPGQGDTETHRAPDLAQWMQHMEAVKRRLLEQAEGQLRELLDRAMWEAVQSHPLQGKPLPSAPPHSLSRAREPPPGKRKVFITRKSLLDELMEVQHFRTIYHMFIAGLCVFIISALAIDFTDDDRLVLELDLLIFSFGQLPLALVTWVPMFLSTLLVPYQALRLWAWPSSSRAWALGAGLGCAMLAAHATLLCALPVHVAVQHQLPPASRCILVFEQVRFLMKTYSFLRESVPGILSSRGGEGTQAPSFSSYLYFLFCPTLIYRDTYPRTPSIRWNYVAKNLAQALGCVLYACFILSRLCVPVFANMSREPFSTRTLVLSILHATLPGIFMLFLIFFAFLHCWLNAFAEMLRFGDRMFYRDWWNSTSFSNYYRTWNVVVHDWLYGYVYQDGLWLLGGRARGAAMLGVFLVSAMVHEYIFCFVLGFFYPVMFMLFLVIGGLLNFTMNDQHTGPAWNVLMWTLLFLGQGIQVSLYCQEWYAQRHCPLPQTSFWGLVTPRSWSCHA
Description: The ability of representative compounds of the present invention to inhibit ACAT was measured using an in vitro test more fully described in F. J. Field and R. G. Salone, Biochemica et Biophysica 712:557-570 (1982). The test assesses the ability of a test compound to inhibit the acylation of cholesterol by oleic acid by measuring the amount of radiolabeled cholesterol oleate formed from radiolabeled oleic acid in a tissue preparation containing rabbit intestinal microsomes.

| IC50 [2] | Structure (SMILES) | % Change (mg/dl) in cholesterol [1] |
| --- | --- | --- |
|  | CCCCCCCCCCC(C)OS(=O)(=O)NC(=O)Nc1c(C(C)C)cccc1C(C)C (racemic) [Example 8, (±) 1-Methylundecyl [[[2,6-bis(1-methylethyl)phenyl]amino]carbonyl]sulfamate] | -68% |
| 35 µM | CC(C)c1cccc(C(C)C)c1NC(=O)NS(=O)(=O)Oc1c(C(C)C)cccc1C(C)C [Example 7, 2,6-bis(1-methylethyl)phenyl [[[2,6-bis (1-methylethyl)phenyl]amino]carbonyl]sulfamate] | -51% |
| > 10 µM | CCCCCCCCCCOS(=O)(=O)NC(=O)Nc1c(C(C)C)cccc1C(C)C [Example 5, Decyl [[[2,6-bis(1-methylethyl)phenyl]amino]carbonyl]sulfamate] | -31% |
|  | CCCCCCCCCCCCOS(=O)(=O)NC(=O)Nc1c(C(C)C)cccc1C(C)C.[Na] | -58% |
| 8.7 µM | CCCCCCC(C)OS(=O)(=O)NC(=O)Nc1c(C(C)C)cccc1C(C)C (racemic) [Example 6, (±) 1-Methylheptyl [[[2,6-bis(1-methylethyl)phenyl]amino]carbonyl]sulfamate] | -43% |
|  | CCCCCCOS(=O)(=O)NC(=O)Nc1c(C(C)C)cccc1C(C)C [Example 1, Hexyl [[[2,6-bis(1-methylethyl)phenyl]amino]carbonyl]sulfamate] | -56% |
|  | CCCCCCCCCCCCOS(=O)(=O)NC(=O)Nc1c(C(C)C)cccc1C(C)C [Example 3, Dodecyl [[[2,6-bis(1-methylethyl)phenyl]amino]carbonyl]sulfamate] | -75% |
|  | CCCCCCCCCCCCCCCCCCOS(=O)(=O)NC(=O)Nc1c(C(C)C)cccc1C(C)C [Example 2, Octadecyl [[[2,6-bis(1-methylethyl)phenyl]amino]carbonyl]sulfamate] | -42% |
